# Source: patent US10202343B2, “MIF modulators” (YALE UNIVERSITY, priority 2008, dated 2019)
# Where two headings read alike, the source gives them in different places.
# What was measured:
# MIF tautomerase activity = biological target: T1, MIF tautomerase activity (Homo sapiens, UniProt P14174); conditions: literature, Cheng & Al-Abed 2006; cited from earlier work
# T1 sequence (P14174 2-115 limits assumed): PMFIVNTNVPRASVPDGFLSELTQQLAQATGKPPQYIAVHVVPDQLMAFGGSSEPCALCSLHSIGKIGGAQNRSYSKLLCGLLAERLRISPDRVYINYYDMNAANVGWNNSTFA
# [1] = biological target: T2, Human MIF (MIF tautomerase activity) (Homo sapiens, UniProt P14174); experiment: HPP tautomerase assay; type: biochemical; conditions: for HPP Max Inhib / HPP % MaxInhib: number before @; for HPP IC50: Table 8
# T2 construct: made in house
# T2 sequence (P14174 2-115 limits assumed): T1 sequence (P14174 2-115 limits assumed)
# Method: The HPP assay used was adapted to the microtiter plate format. […] Dilutions of the enzyme were prepared in 50 mM sodium phosphate buffer, 1 mM EDTA, pH 6.5. HPP was obtained from Aldrich. A stock solution of 60 mM HPP in ethanol is prepared and kept for maximally 4 hours on ice. The working solution (600 μM) of the substrate was prepared by diluting an aliquot of the stock solution with 50 mM sodium phosphate buffer, 1 mM EDTA, pH 6.5. […] Inhibitor and enzyme solutions were pipetted manually using an Eppendorf 12-channel pipette. Addition of substrate to start the reaction was performed with an Igel 96 pipetting station (OpalJena, Jena, Germany), which allows simultaneous addition of fluid to all 96 wells of the plates. Optical density (OD) was determined using a SPECTRAmax 250 reader (Molecular Devices). The reader was operated with the SoftmaxPro 2.6.1 software. Assay: Three wells of the microtiter plates were filled with buffer only, to allow for blanking. […] The last step was performed using the 96-channel pipetting device. The plate was then immediately (i.e. within a few seconds) transferred manually to the SPECTRAmax 250 reader and the optical density was determined (310 nm). From the data obtained, IC50 values were calculated using Excel® and XLfit® software.
# [2] = biological target: T3, MIF-CD74 Binding (biotin-labeled recombinant human MIF, recombinant human MIF receptor CD74 ectodomain) (Homo sapiens, UniProt P14174); experiment: MIF-CD74 binding (capture) assay; set-up: concentration of C74 % MaxInhib (number after @): unit not given here; conditions: for CD74 % MaxInhib / C74 % MaxInhib: number before @; for concentration of C74 % MaxInhib (number after @) / C74 % MaxInhib: Table 18; for CD74 IC50: Table 6, data cell c9
# T3 sequence (P14174 2-115 limits assumed): T1 sequence (P14174 2-115 limits assumed)
# [3] = press release, cited from earlier work
# ovarian cancer cell line = experiment: growth of an ovarian cancer cell line; type: cell-based
# Description: KSP inhibitor ARRY-520 is used as a substitute for Paclitaxel in Type I ovarian cancer cells. J Transl Med. 7:63.
# [4] = test system: MIF-dependent signal transduction (ERK1/2 phosphorylation); experiment: MIF-dependent signal transduction in cells (ERK1/2 phosphorylation); type: cell-based; conditions: compared to isoxazoline-1
# Method: Two additional assays were performed on compounds according to the present invention. In the first, MIF-dependent signal transduction in cells as evidenced by a reduction in ERK1/2 phosphorylation and its inhibitory action is compared to the known small molecule MIF antagonist, isoxazoline-1 following the assay reported in Leng L., Metz C, Fang Y, Xu J, Donnelly S, Baugh J, Delonery T, Chen Y, Mitchell R A, and Bucala R. 2003. MIF Signal Transduction Initiated by Binding to CD74. J Exp Med 197, 1467-1476.
# [5] = Table 6, data cell c7, read-out: HPP IC50
smiles,measurement,setting,value
CC(C)(C)OC(=O)C[C@H]1CC(c2ccc(O)c(F)c2)=NO1 [(R)-17],potency (inhibition of MIF tautomerase activity),MIF tautomerase activity,0.55 µM
"Ic1cc(-c2ccccc2)ncn1 [Compound 4-IPP, 4-iodo-6-phenylpyrimidine, reference compound]",IC50,[1]; read-out: inhibitor in the HPP tautomerase assay,4.5 µM
same,activity in the capture assay,[2],inactive
same,anti-tumor activity,[3]; by blocking tumor-specific angiogenesis,exhibits anti-tumor activity
same,safety profile,[3]; laboratory studies,favorable safety profile
N#Cc1ccc2c(=O)n(-c3ccc(Cl)cc3)sc2c1 [Compound 37],IC50,"[1]; Table 3, read-out: HPP IC50",3.1 µM
same,IC50,[1]; [5],3.1 µM
same,activity in the ovarian cancer assay (growth inhibition),ovarian cancer cell line,significant activity
same,Capture % Max. Inhib.,[2]; Table 3,16%
same,CD74 % MaxInhib,"[2]; Table 6, data cell c8",16%
Cc1ccc2oc(=O)n(Cc3cccc(O)c3)c2c1 [Compound 098],IC50,"[1]; Table 4, read-out: HPP IC50",0.01 µM
same,activity in the ovarian cancer assay (growth inhibition),ovarian cancer cell line,significant activity
same,concentration of CD74 % MaxInhib (number after @),[2]; Table 4,0.0078 µM
same,inhibitory action on MIF-dependent ERK1/2 phosphorylation,[4],significant inhibitory action
O=C(c1cc2ccccc2o1)c1cc2cc(F)ccc2o1 [MIF-073],concentration of HPP Max Inhib (number after @),[1]; Table 13,700 µM
same,HPP Max Inhib,"[1]; Table 13, data cell c5",33%
same,concentration of CD74 % MaxInhib (number after @),[2]; Table 13,0.12 µM
same,CD74 % MaxInhib,[2]; Table 13,17%
COc1cccc(Cc2cn(-c3ccc(O)cc3)nn2)c1 [MIF-074],concentration of HPP Max Inhib (number after @),[1]; Table 18,1000
same,HPP Max Inhib,[1]; Table 18,40%
same,concentration of C74 % MaxInhib (number after @),[2],0.24
same,C74 % MaxInhib,[2],8%
COc1cccc(C(=O)c2cn(-c3ccc(O)cc3)nn2)c1 [MIF-076],IC50,"[1]; Table 18, read-out: HPP IC50",790 µM
same,concentration of C74 % MaxInhib (number after @),[2],0.0078
same,C74 % MaxInhib,[2],12%
Cc1ccc2cc(C(=O)c3cc4ccccc4o3)oc2c1 [MIF-077],concentration of HPP Max Inhib (number after @),[1]; Table 13,1000 µM
same,HPP Max Inhib,"[1]; Table 13, data cell c5",30%
same,concentration of CD74 % MaxInhib (number after @),[2]; Table 13,0.24 µM
same,CD74 % MaxInhib,[2]; Table 13,16%
Cc1cccc(Cc2cn(-c3ccc(O)cc3)nn2)c1 [MIF-079],IC50,"[1]; Table 18, read-out: HPP IC50",475 µM
same,concentration of C74 % MaxInhib (number after @),[2],0.078
same,C74 % MaxInhib,[2],30%
COc1ccc2cc(C(=O)N3CCc4ccccc43)oc2c1 [MIF-083],concentration of HPP Max Inhib (number after @),[1]; Table 14,3 µM
same,HPP Max Inhib,[1]; Table 14,33%
same,concentration of CD74 % MaxInhib (number after @),[2]; Table 14,0.078 µM
same,CD74 % MaxInhib,[2]; Table 14,12%
COc1ccc(Cc2cn(-c3ccc(O)cc3)nn2)cc1 [MIF-086],IC50,"[1]; Table 18, read-out: HPP IC50",65 µM
same,concentration of C74 % MaxInhib (number after @),[2],0.078
same,C74 % MaxInhib,[2],36%
Oc1ccc(Cc2cn(-c3ccc(O)cc3)nn2)cc1 [MIF-087],IC50,"[1]; Table 18, read-out: HPP IC50",690 µM
same,concentration of C74 % MaxInhib (number after @),[2],0.078
same,C74 % MaxInhib,[2],23%
COc1ccc2oc(C(=O)N3CCc4ccccc43)cc2c1 [MIF-088],concentration of HPP Max Inhib (number after @),[1]; Table 14,5 µM
same,HPP Max Inhib,[1]; Table 14,23%
same,concentration of CD74 % MaxInhib (number after @),[2]; Table 14,0.24 µM
same,CD74 % MaxInhib,[2]; Table 14,30%
O=C(c1cc2cc(F)ccc2o1)N1CCc2ccccc21 [MIF-089],concentration of HPP Max Inhib (number after @),[1]; Table 14,1 µM
same,HPP Max Inhib,[1]; Table 14,19%
same,concentration of CD74 % MaxInhib (number after @),[2]; Table 14,0.12 µM
same,CD74 % MaxInhib,[2]; Table 14,30%
COc1ccc(Cc2cn(-c3ccc(O)cc3)nn2)cc1OC [MIF-090],IC50,"[1]; Table 18, read-out: HPP IC50",70 µM
same,concentration of C74 % MaxInhib (number after @),[2],0.078
same,C74 % MaxInhib,[2],22%
Cc1ccc2c(c1)CCN2C(=O)c1cc2ccccc2o1 [MIF-094],IC50,"[1]; Table 14, read-out: HPP IC50",760 µM
same,concentration of CD74 % MaxInhib (number after @),[2]; Table 14,0.95 µM
same,CD74 % MaxInhib,[2]; Table 14,33%
Cc1ccc2c(c1)N(C(=O)c1cc3ccccc3o1)CC2 [MIF-095],IC50,"[1]; Table 14, read-out: HPP IC50",910 µM
same,concentration of CD74 % MaxInhib (number after @),[2]; Table 14,0.039 µM
same,CD74 % MaxInhib,[2]; Table 14,33%
O=C(c1cc2ccccc2o1)N1CCc2cc(F)ccc21 [MIF-096],IC50,"[1]; Table 14, read-out: HPP IC50",1360 µM
same,concentration of CD74 % MaxInhib (number after @),[2]; Table 14,1.87 µM
same,CD74 % MaxInhib,[2]; Table 14,19%
O=c1oc2ccc(F)cc2n1Cc1cccc(O)c1 [MIF-108],activity in the ovarian cancer assay (growth inhibition),ovarian cancer cell line,significant activity
Clc1ccc2nc(-c3ccccc3)oc2c1 [MIF-120],concentration of HPP % MaxInhib (number after @),[1]; Table 7,0.1 µM
same,HPP % MaxInhib,"[1]; Table 7, data cell c6",13%
same,concentration of CD74 % MaxInhib (number after @),[2]; Table 7,0.078 µM
same,CD74 % MaxInhib,"[2]; Table 7, data cell c7",11%
Clc1ccc(-c2nc3ccc(Cl)cc3o2)cc1 [MIF-121],HPP % MaxInhib,"[1]; Table 7, data cell c6",43%
same,concentration of CD74 % MaxInhib (number after @),[2]; Table 7,0.078 µM
same,CD74 % MaxInhib,"[2]; Table 7, data cell c7",27%
Clc1ccc(-c2nc3cc(Cl)ccc3o2)cc1 [MIF-122],HPP % MaxInhib,"[1]; Table 7, data cell c6",31%
same,concentration of CD74 % MaxInhib (number after @),[2]; Table 7,3.76 µM
same,CD74 % MaxInhib,"[2]; Table 7, data cell c7",13%
Cc1ccc2nc(-c3ccc(Cl)cc3)oc2c1 [MIF-123],concentration of HPP % MaxInhib (number after @),[1]; Table 7,50 µM
same,HPP % MaxInhib,"[1]; Table 7, data cell c6",14%
same,concentration of CD74 % MaxInhib (number after @),[2]; Table 7,3.76 µM
same,CD74 % MaxInhib,"[2]; Table 7, data cell c7",26%
Cc1ccc2oc(-c3ccc(Cl)cc3)nc2c1 [MIF-124],concentration of HPP % MaxInhib (number after @),[1]; Table 7,1000 µM
same,HPP % MaxInhib,"[1]; Table 7, data cell c6",29%
same,concentration of CD74 % MaxInhib (number after @),[2]; Table 7,0.078 µM
same,CD74 % MaxInhib,"[2]; Table 7, data cell c7",11%
O=C1c2cc(F)ccc2CN1c1ccc(Cl)cc1 [MIF-125],HPP % MaxInhib,[1]; Table 9,45%
same,concentration of CD74 % MaxInhib (number after @),[2]; Table 9,0.12 µM
same,CD74 % MaxInhib,[2]; Table 9,19%
O=C1c2ccc(F)cc2CN1c1ccc(Cl)cc1 [MIF-126],concentration of HPP % MaxInhib (number after @),[1]; Table 9,100 µM
same,HPP % MaxInhib,[1]; Table 9,32%
same,concentration of CD74 % MaxInhib (number after @),[2]; Table 9,0.078 µM
same,CD74 % MaxInhib,[2]; Table 9,7%
Fc1ccc2cc(-c3ccc(Cl)cc3)[nH]c2c1 [MIF-127],IC50,"[1]; Table 10, read-out: HPP IC50",240 µM
same,concentration of CD74 % MaxInhib (number after @),[2]; Table 10,0.34 µM
same,CD74 % MaxInhib,[2]; Table 10,22%
Fc1ccc2[nH]c(-c3ccc(Cl)cc3)cc2c1 [MIF-128],IC50,"[1]; Table 10, read-out: HPP IC50",280 µM
same,concentration of CD74 % MaxInhib (number after @),[2]; Table 10,0.0039 µM
same,CD74 % MaxInhib,[2]; Table 10,20%
Fc1ccc2nn(-c3ccc(Cl)cc3)cc2c1 [MIF-129],IC50,"[1]; Table 11, read-out: HPP IC50",490 µM
same,concentration of CD74 % MaxInhib (number after @),[2]; Table 11,0.12 µM
same,CD74 % MaxInhib,[2]; Table 11,27%
Fc1ccc2[nH]c(-c3ccc(Cl)cc3)nc2c1 [MIF-130],HPP % MaxInhib,[1]; Table 12,28%
same,concentration of CD74 % MaxInhib (number after @),[2]; Table 12,0.34 µM
same,CD74 % MaxInhib,[2]; Table 12,21%
Fc1ccc2cn(-c3ccc(Cl)cc3)nc2c1 [MIF-131],HPP % MaxInhib,[1]; Table 11,30%
same,concentration of CD74 % MaxInhib (number after @),[2]; Table 11,0.12 µM
same,CD74 % MaxInhib,[2]; Table 11,29%
O=c1c2ccc(F)cc2sn1-c1cccc(Cl)c1 [MIF-132],IC50,[1]; [5],5 µM
same,concentration of CD74 % MaxInhib (number after @),[2]; Table 6,0.078 µM
same,CD74 % MaxInhib,"[2]; Table 6, data cell c8",20%
N#Cc1ccc(-n2sc3cc(F)ccc3c2=O)cc1 [MIF-133],IC50,[1]; [5],6.4 µM
same,concentration of CD74 % MaxInhib (number after @),[2]; Table 6,0.078 µM
O=c1c2ccc(F)c(F)c2sn1-c1ccc(Cl)cc1 [MIF-134],IC50,[1]; [5],5.6 µM
same,concentration of CD74 % MaxInhib (number after @),[2]; Table 6,3.76 µM
same,CD74 % MaxInhib,"[2]; Table 6, data cell c8",11%
c1ccc(-c2nc3ccccc3s2)cc1 [MIF-137],HPP IC50,[1],agonist
same,concentration of CD74 % MaxInhib (number after @),[2]; Table 8,0.078 µM
Cc1ccc2nc(-c3ccccc3)sc2c1 [MIF-138],HPP IC50,[1],agonist
same,concentration of CD74 % MaxInhib (number after @),[2]; Table 8,0.078 µM
same,CD74 % MaxInhib,[2]; Table 8,20%
O=c1c2cc(F)ccc2sn1-c1ccc(Cl)cc1 [MIF-141],IC50,[1]; [5],5.6 µM
same,CD74 IC50,[2],agonist
COc1ccc(-n2sc3ccc(F)cc3c2=O)cc1 [MIF-142],IC50,[1]; [5],6.5 µM
same,CD74 IC50,[2],agonist
O=c1c2cc(F)c(F)cc2sn1-c1ccc(Cl)cc1 [MIF-143],IC50,[1]; [5],4.9 µM
same,CD74 IC50,[2],agonist
